Measurements published in patent US10034886B2, “GLP-1 receptor modulators” (Celgene International II SÀRL, priority 2014, dated 2018).

Biological target: T1, GLP-1R (Homo sapiens, UniProt P43220)
T1 construct: host or cells: GLP-1R CRE-bla CHO-K1 cells
Assay: EC20 GLP-1(9-36) PAM cAMP assay: dose response of compound in the presence of fixed concentration of GLP-1(9-36)
Format: cell-based
Settings: GLP-1R CRE-bla CHO-K1 cells, compound dose response with fixed concentration of GLP-1(9-36), read-out: EC20 GLP-1(9-36) PAM EC50
Outline: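 Positive allosteric modulation read as cAMP accumulation: compound titrations (12 points) combined with an EC20 level of GLP-1(9-36) on CHO-K1 GLP-1R CRE-bla cells, IBMX present, 30 min, 37 °C, pH 7.4 buffer. Luminescence converted to cAMP via standards; non-linear fit gave EC50 and Emax.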

T1 sequence (P43220 24-463): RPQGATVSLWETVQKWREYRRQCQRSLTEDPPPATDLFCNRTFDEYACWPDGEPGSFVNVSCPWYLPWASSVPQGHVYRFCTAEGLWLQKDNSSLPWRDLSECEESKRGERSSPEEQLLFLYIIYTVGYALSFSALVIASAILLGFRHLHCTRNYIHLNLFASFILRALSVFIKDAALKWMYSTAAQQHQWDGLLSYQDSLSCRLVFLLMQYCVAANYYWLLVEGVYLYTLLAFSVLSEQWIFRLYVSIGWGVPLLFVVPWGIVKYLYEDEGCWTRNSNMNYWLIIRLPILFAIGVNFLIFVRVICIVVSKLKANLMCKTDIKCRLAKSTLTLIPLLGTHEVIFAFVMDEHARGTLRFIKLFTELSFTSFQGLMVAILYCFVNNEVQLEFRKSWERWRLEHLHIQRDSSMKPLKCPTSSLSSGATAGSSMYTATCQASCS
T1 sequence (P01275 100-127 partner limits assumed): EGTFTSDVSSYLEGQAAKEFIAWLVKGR

EC50 [nM] | SMILES
5000 to 10000 | C[C@@H](NC(=O)[C@H](Cc1ccc(-c2ncc(-c3ccc(-c4cccc(C(F)(F)F)c4)cc3)cn2)cc1)NC(=O)c1ccc(C(C)(C)C)s1)C(=O)O [Compound 1319]
< 800 | CC[C@H]1CC[C@H](c2ccc(-c3cnc(-c4ccc(C[C@H](NC(=O)c5ccc(C(C)(C)C)s5)C(=O)N[C@@H](CO)C(=O)O)cc4)nc3)cc2)CC1 [Compound 1326]
< 800 | CC(C)(C)c1ccc(C(=O)N[C@@H](Cc2ccc(-c3ncc(-c4ccc(-c5ccc(C6CC6)cc5)cc4F)cn3)cc2)C(=O)N2CC(C(=O)O)C2)s1 [Compound 1209]
< 800 | C[C@@H](NC(=O)[C@H](Cc1ccc(-c2ncc(/C=C/CCCCc3ccccc3)cn2)cc1)NC(=O)c1ccc(C(C)(C)C)s1)C(=O)O [Compound 1253]
2500 to 5000 | CCC[C@H]1CC[C@H](N2CCN(c3cnc(-c4ccc(CC(NC(=O)c5ccc(C(C)(C)C)s5)C(=O)N5CC(C(=O)O)C5)cc4)nc3)C(=O)C2)CC1 (stereo partly shown) [Compound 1420]
< 800 | CCC[C@H]1CC[C@H](C2CCN(c3cnc(-c4ccc(C[C@H](NC(=O)c5ccc(C(C)(C)C)s5)C(=O)NC(C)(C)C(=O)O)cc4)nc3)CC2)CC1 [Compound 1466]
< 800 | CC(C)(C)c1ccc(C(=O)N[C@@H](Cc2ccc(-c3ncc(-c4ccc(-c5cccc(C(F)(F)F)c5)cc4)cn3)cc2)C(=O)O)s1 [Compound 1347]
< 800 | CN(C)c1ccc(C2CCN(c3cnc(-c4ccc(CC(NC(=O)c5ccc(C(C)(C)C)s5)C(=O)N5CC(C(=O)O)C5)cc4)nc3)CC2)cc1 (stereo not shown) [Compound 1517]
5000 to 10000 | CCCCCCOC1CN(c2cnc(-c3ccc(C[C@H](NC(=O)c4ccc(C(C)(C)C)s4)C(=O)N[C@H](C)C(=O)O)cc3)nc2)C1 [Compound 1273]
2500 to 5000 | CC[C@H]1CC[C@H](c2ccc(-c3ccc(-c4ccc(C[C@H](NC(=O)c5ccc(C(C)(C)C)s5)C(=O)O)cc4)cn3)cc2)CC1 [Compound 1335]
800 to 2500 | CCc1ccc(C#Cc2cnc(-c3ccc(C[C@H](NC(=O)c4ccc(C(C)(C)C)s4)C(=O)N[C@H](C)C(=O)O)cc3)nc2)cc1 [Compound 1276]
< 800 | CCC[C@H]1CC[C@H](C2CCN(c3cnc(-c4ccc(C[C@H](NC(=O)c5cnc(C(C)(C)C)nc5)C(=O)N5CC(C(=O)O)C5)cc4)nc3)CC2)CC1 [Compound 1514]
2500 to 5000 | C[C@@H](NC(=O)[C@H](Cc1ccc(-c2ncc(/C=C/c3ccc(F)cc3F)cn2)cc1)NC(=O)c1ccc(C(C)(C)C)s1)C(=O)O [Compound 1255]

Same assay, conditions: dose response of compound in presence of fixed concentration of GLP-1(9-36), GLP-1R CRE-bla CHO-K1 cells, read-out: EC20 GLP-1(9-36) PAM EC50

SMILES | EC50 [nM]
CCCCCCCOc1ccc(-c2cnc(-c3ccc(C[C@H](NC(=O)c4cnn(C(C)(C)C)c4C)C(=O)N4CCC[C@H]4C(=O)O)cc3)nc2)cc1 [Compound 1079] | 2500 to 5000
CCCCCCCOc1ccc(-c2cnc(-c3ccc(C[C@H](NC(=O)c4ccc(C(C)(C)C)s4)C(=O)N4CCN(c5ncccn5)CC4)cc3)nc2)cc1 [Compound 967] | 2500 to 5000
CCCCCCCOc1ccc(-c2cnc(-c3ccc(C[C@H](NC(=O)/C=C/c4ccc(OC)cc4)C(=O)N[C@H](C)C(=O)O)cc3)nc2)cc1 [Compound 1047] | 2500 to 5000
CC[C@H]1CC[C@H](c2ccc(N3CCN(c4ccc(C[C@H](NC(=O)c5ccc(C(C)(C)C)s5)C(=O)N5CC(C(=O)O)C5)cc4)CC3)cc2)CC1 [Compound 1060] | 2500 to 5000
CCCCCCCOc1ccc(-c2cnc(-c3ccc(C[C@H](NC(=O)c4ccc(C(C)(C)C)s4)C(=O)N(C)CC4CCN(CCOC)CC4)cc3)nc2)cc1 [Compound 971] | 2500 to 5000
CCCCCCCOc1ccc(-c2cnc(-c3ccc(C[C@H](NC(=O)c4ccc(C(C)(C)C)s4)C(=O)NC(C(=O)O)C(O)c4cn(C)cn4)cc3)nc2)cc1 (stereo partly shown) [Compound 906] | 2500 to 5000
CCCCCCCOc1ccc(-c2cnc(-c3ccc(C[C@H](NC(=O)c4ccc(C(C)(C)C)cc4)C(=O)NC(C)CC(=O)O)cc3)nc2)cc1 (stereo partly shown) [Compound 537] | 5000 to 10000
CC(C)Oc1ccc(-c2cnc(-c3ccc(C[C@H](NC(=O)c4ccc(C(C)(C)C)s4)C(=O)NC(C(=O)O)C(O)c4ccccc4)cc3)nc2)cc1 (stereo partly shown) [Compound 931] | 2500 to 5000
CCCCCCCOc1ccc(-c2cnc(-c3ccc(C[C@H](NC(=O)c4ccc(C(C)(C)C)s4)C(=O)N4CC[C@H](C(=O)Nc5nnn[nH]5)C4)cc3)nc2)cc1 [Compound 885] | 5000 to 10000
CCCCCCCOc1ccc(-c2cnc(-c3ccc(CC(NC(=O)c4ccc(C(C)(C)C)s4)C(=O)N[C@@H](CCCNC(=N)N)C(=O)O)cc3)nc2)cc1 (stereo partly shown) [Compound 425] | 2500 to 5000
CCCCCCCOc1ccc(-c2cnc(-c3ccc(C[C@H](NC(=O)/C=C/C(C)(C)C)C(=O)NC(C(=O)O)C(O)c4ccccc4)cc3)nc2)cc1 (stereo partly shown) [Compound 955] | 5000 to 10000
CCCCCCCOc1ccc(-c2cnc(-c3ccc(C[C@H](NC(=O)c4ccc(CCC)s4)C(=O)N4CC(C(=O)O)C4)cc3)nc2)cc1 [Compound 1107] | 800 to 2500
CCCCCCCOc1ccc(N2CCN(c3ccc(C[C@H](NC(=O)c4ccc(C(C)(C)C)cc4)C(=O)N[C@H](C)C(=O)O)cc3)CC2)cc1 [Compound 804] | 800 to 2500
CCCCCCCOc1ccc(-c2cnc(-c3ccc(C[C@H](NC(=O)c4ccc(OCCC)cc4)C(=O)N4CC(C(=O)O)C4)cc3)nc2)cc1 [Compound 1105] | 2500 to 5000
CCCCOc1ccc(CC(=O)N[C@@H](Cc2ccc(-c3ncc(-c4ccc([C@H]5CC[C@H](CC)CC5)cc4)cn3)cc2)C(=O)N2CC(C(=O)O)C2)cc1 [Compound 1161] | 800 to 2500

Further lines, results first:

EC50 [nM] | SMILES
< 800 | CCCCCCCOc1ccc(-c2cnc(-c3ccc(C[C@H](NC(=O)c4ccc(C(C)(C)C)s4)C(=O)NC(C(=O)O)C(C)c4ccccc4)cc3)nc2)cc1 (stereo partly shown) [Compound 636]
800 to 2500 | CC(C)CCCOc1ccc(-c2cnc(-c3ccc(C[C@H](NC(=O)c4ccc(C(C)(C)C)s4)C(=O)N[C@H](C)C(=O)O)cc3)nc2)cc1 [Compound 771]
800 to 2500 | CCCCCCCOc1ccc(-c2cnc(-c3ccc(CC(NC(=O)c4ccc(C(C)(C)C)s4)C(=O)Nc4ccc(C(=O)O)cc4)cc3)nc2)cc1 (stereo not shown) [Compound 442]
800 to 2500 | CCCCCCCOc1ccc(-c2cnc(-c3ccc(C[C@H](NC(=O)Cc4ccc(OCCCC)cc4)C(=O)N4CCC[C@H]4C(=O)O)cc3)nc2)cc1 [Compound 1070]
800 to 2500 | CC(C)CCCCOc1ccc(-c2cnc(-c3ccc(C[C@H](NC(=O)c4ccc(C(C)(C)C)s4)C(=O)NC(C(=O)O)C(O)c4ccccc4)cc3)nc2)cc1 (stereo partly shown) [Compound 923]
800 to 2500 | CC(C)CCCCOc1ccc(-c2cnc(-c3ccc(C[C@H](NC(=O)c4ccc(C(C)(C)C)cc4)C(=O)NCCC(=O)O)cc3)nc2)cc1 [Compound 472, (S)-3-(2-(4-(tert-butyl)benzamido)-3-(4-(5-(4-((5-methylhexyl)oxy)phenyl)-pyrimidin-2-yl)phenyl)propanamido)propanoic acid]
800 to 2500 | CCCCCCOc1ccc(-c2cnc(-c3ccc(C[C@H](NC(=O)c4ccc(C(C)(C)C)s4)C(=O)N4CC(C(=O)O)C4)cc3)nc2)cc1 [Compound 777]
< 800 | CCCCCCCCOc1ccc(-c2cnc(-c3ccc(C[C@H](NC(=O)c4ccc(C(C)(C)C)s4)C(=O)N[C@H](C)C(=O)O)cc3)nc2)cc1 [Compound 736]
800 to 2500 | CCCCCCCOc1ccc(-c2cnc(-c3ccc(C[C@H](NC(=O)c4ccc(C(C)(C)C)s4)C(=O)N[C@@H](CC(=O)Nc4nnn[nH]4)C(=O)O)cc3)nc2)cc1 [Compound 522]
< 800 | CC(C)(C)c1ccc(C(=O)N[C@@H](Cc2ccc(-c3ncc(-c4ccc([C@H]5CC[C@H](C(F)(F)F)CC5)cc4)cn3)cc2)C(=O)N2CC(C(=O)O)C2)s1 [Compound 1184]
< 800 | CCCCCCCOc1ccc(-c2cnc(-c3ccc(C[C@H](NC(=O)c4ccc(C(C)(C)C)s4)C(=O)N4CC(C(=O)O)C4)cc3)nc2)cc1C [Compound 776]
< 800 | CCCCCCCOc1ccc(-c2cnc(-c3ccc(C[C@H](NC(=O)c4ccc(C(C)(C)C)cc4)C(=O)NC(C(=O)O)c4ccco4)cc3)nc2)cc1 (stereo partly shown) [Compound 440]
< 800 | CCCCCCCOc1ccc(-c2cnc(-c3ccc(C[C@H](NC(=O)c4ccc(C(C)(C)C)cc4)C(=O)NC(Cn4cncn4)C(=O)O)cc3)nc2)cc1 (stereo partly drawn) [Compound 467, 2-((S)-2-(4-(tert-butyl)benzamido)-3-(4-(5-(4-(heptyloxy)phenyl)pyrimidin-2-yl)phenyl)propanamido)-3-(1H-1,2,4-triazol-1-yl)propanoic acid]
800 to 2500 | CCCCCCCOc1ccc(-c2cnc(-c3ccc(C[C@H](NC(=O)c4ccc(C(C)(C)C)cc4C)C(=O)N4CC[C@H](C(=O)O)C4)cc3)nc2)cc1 [Compound 868]
800 to 2500 | CCCCCCCOc1ccc(-c2cnc(-c3ccc(C[C@H](NC(=O)c4ccc(C(C)(C)C)s4)C(=O)N[C@H](C)C(=O)O)cc3)c(C)c2)cc1 [Compound 812]
< 800 | CCCCCCCOc1ccc(-c2cnc(-c3ccc(C[C@H](NC(=O)c4ccc(C(C)(C)C)s4)C(=O)N[C@H](CC(=O)O)C(=O)NC)cc3)nc2)cc1 [Compound 630]
800 to 2500 | C[C@@H](NC(=O)[C@H](Cc1ccc(-c2ncc(-c3ccc(OCc4ccccc4)c(F)c3)cn2)cc1)NC(=O)c1ccc(C(C)(C)C)s1)C(=O)O [Compound 994]
< 800 | CCCCCCCOc1ccc(-c2cnc(-c3ccc(C[C@H](NC(=O)c4ccc(C(C)(C)C)cc4)C(=O)NC(C(=O)O)C4CCOCC4)cc3)nc2)cc1 (stereo partly shown) [Compound 540]
< 800 | CCCCCCCOc1ccc(-c2cnc(-c3ccc(C[C@H](NC(=O)c4ccc(C(C)(C)C)s4)C(=O)N[C@@H](CC(=O)O)C(=O)N(C)C)cc3)nc2)cc1 [Compound 527]
< 800 | CCCCCCCOc1ccc(-c2cnc(-c3ccc(C[C@H](NC(=O)c4ccc(C(C)(C)C)cc4)C(=O)N[C@@H](CC(=O)NCCO)C(=O)O)cc3)nc2)cc1 [Compound 508]
< 800 | CCCCCCCOc1ccc(-c2cnc(-c3ccc(C[C@H](NC(=O)c4ccc(C(C)(C)C)s4)C(=O)N[C@H](C(=O)O)C4CC4)cc3)nc2)cc1 [Compound 405]
